# Laboratory results published in patent US20240409581A1, “SMALL-MOLECULE PEPTIDE AND USE THEREOF AGAINST METABOLIC-[…] LIVER DISEASE AND FOR REDUCING BODY WEIGHT” (Tunghai University, priority 2023, published 2024).
# How the values were obtained:
# Assay type in all cases: in vivo, C57BL/6JNarl mice (male)
# [1] = test system: MAFLD-mode mice (diet with 60% kcal fat+30% v/v fructose corn syrup); experiment: Analysis of the hepatic lipid content (enzymatic colorimetric method) of MAFLD-mode mice; details: eight weeks, liver; for hVLDL (hepatic very-low-density lipoprotein): calculated as 1/5 of the hepatic triglyceride level;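 as to hTC (hepatic total cholesterol): reported in mg/dL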;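 as to hTG (hepatic triglyceride): reported in mg/dL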;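 as to hVLDL (hepatic very-low-density lipoprotein): reported in mg/dL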
# Protocol: (§1) 100 five-week-old C57BL/6JNarl mice (male) were raised in an environment whose temperature was 22-25° C., whose relative humidity was 45%-60%, and which adopted a 12-hour light/12-hour darkness cycle. The mice were fed with common feed and water for three weeks and then randomly divided into 10 groups, whose subsequent treatments are as follows:
# (§2) Each of the four peptides was mixed with 0.5% Carboxymethyl Cellulose (CMC) to form a peptide solution, before the peptide solution was fed into the stomach of each mouse in the corresponding group with a syringe.
# (§3) The test lasted eight weeks. The body weights of, and the amounts of food consumed by, the mice in each group were measured and recorded each week. The mice were sacrificed at the end of the test, and the livers, spleens, and white adipose tissue of the mice in each group were weighed.
# After the test of example 1, the mice in each group were sacrificed, and the livers of the mice were collected in order to measure the hepatic lipid content of the liver of each mouse by an enzymatic colorimetric method. The items measured were hepatic triglyceride (hTG), hepatic total cholesterol (hTC), hepatic free fatty acid (hFFA), and hepatic very-low-density lipoprotein (hVLDL), wherein the hVLDL level was calculated as ⅕ of the hepatic triglyceride level.
# [2] = test system: MAFLD-mode mice (diet with 60% kcal fat+30% v/v fructose corn syrup); experiment: Biochemical analysis of blood (sALT and serum lipid indices) of MAFLD-mode mice; details: eight weeks
# Protocol: as §1, §2, §3
# After the test of example 1, blood samples were taken from the mice in each group, and the serum alanine transaminase (sALT), serum triglyceride (sTG), serum total cholesterol (sTC), serum free fatty acid (sFFA), and serum very-low-density lipoprotein (sVLDL) levels of the blood samples were measured.
# [3] = test system: MAFLD-mode mice (diet with 60% kcal fat+30% v/v fructose corn syrup); experiment: Animal test: body, liver, spleen and white adipose tissue weights of MAFLD-mode mice; details: for Epididymal white adipose tissue / Final body weight / Liver weight / Mesenteric white adipose tissue / Perirenal white adipose tissue / Spleen weight: eight weeks, high-fat/fructose diet; for Initial body weight: before the eight-week test
# Protocol: as §1
# Group 1: This was the blank group. The mice in this group were fed with common animal feed and distilled water.
# Group 2: This was the control group. The mice in this group were fed with a diet with 60% kcal fat+30% v/v fructose corn syrup (and a 0.5% carboxymethyl cellulose (CMC) solution) and thereby induced to develop into MAFLD-mode mice.
# Group 3: This was the low-dosage YF dipeptide group. The mice in this group were fed with the Tyr-Phe dipeptide at a dose of 10 mg/kg/day, in addition to a diet with 60% kcal fat+30% v/v fructose corn syrup.
# Group 4: This was the high-dosage YF dipeptide group. The mice in this group were fed with the Tyr-Phe dipeptide at a dose of 50 mg/kg/day, in addition to a diet with 60% kcal fat+30% v/v fructose corn syrup.
# Group 5: This was the low-dosage FY dipeptide group. The mice in this group were fed with the Phe-Tyr dipeptide at a dose of 10 mg/kg/day, in addition to a diet with 60% kcal fat+30% v/v fructose corn syrup.
# Group 6: This was the high-dosage FY dipeptide group. The mice in this group were fed with the Phe-Tyr dipeptide at a dose of 50 mg/kg/day, in addition to a diet with 60% kcal fat+30% v/v fructose corn syrup.
# Group 7: This was the low-dosage EWYF tetrapeptide group. The mice in this group were fed with the Glu-Trp-Tyr-Phe tetrapeptide (which has the sequence of SEQ ID No.: 1) at a dose of 10 mg/kg/day, in addition to a diet with 60% kcal fat+30% v/v fructose corn syrup.
# Group 8: This was the high-dosage EWYF tetrapeptide group. The mice in this group were fed with the Glu-Trp-Tyr-Phe tetrapeptide (which has the sequence of SEQ ID No.: 1) at a dose of 50 mg/kg/day, in addition to a diet with 60% kcal fat+30% v/v fructose corn syrup.
# Group 9: This was the low-dosage EWFY tetrapeptide group. The mice in this group were fed with the Glu-Trp-Phe-Tyr tetrapeptide (which has the sequence of SEQ ID No.: 2) at a dose of 10 mg/kg/day, in addition to a diet with 60% kcal fat+30% v/v fructose corn syrup.
# Group 10: This was the high-dosage EWFY tetrapeptide group. The mice in this group were fed with the Glu-Trp-Phe-Tyr tetrapeptide (which has the sequence of SEQ ID No.: 2) at a dose of 50 mg/kg/day, in addition to a diet with 60% kcal fat+30% v/v fructose corn syrup.
# as §2, §3
substance,measurement,setting,value
Tyr-Phe [YF],hFFA (hepatic free fatty acid),[1]; 10 mg/kg/day,110.93 ± 21.96 mEq/L
same,hTC (hepatic total cholesterol),[1]; 10 mg/kg/day,11.22 ± 1.23 mg/dL
same,hTG (hepatic triglyceride),[1]; 10 mg/kg/day,41.81 ± 8.32 mg/dL
same,hVLDL (hepatic very-low-density lipoprotein),[1]; 10 mg/kg/day,8.36 ± 1.66 mg/dL
same,hFFA (hepatic free fatty acid),[1]; 50 mg/kg/day,98.90 ± 24.07 mEq/L
same,hTC (hepatic total cholesterol),[1]; 50 mg/kg/day,9.76 ± 1.45 mg/dL
same,hTG (hepatic triglyceride),[1]; 50 mg/kg/day,36.95 ± 8.33 mg/dL
same,hVLDL (hepatic very-low-density lipoprotein),[1]; 50 mg/kg/day,7.39 ± 1.67 mg/dL
same,sALT (serum alanine transaminase),[2]; 10 mg/kg/day,44.4 ± 15.09 IU/L
same,sFFA (serum free fatty acid),[2]; 10 mg/kg/day,0.932 ± 0.336 mEq/L
same,sTC (serum total cholesterol),[2]; 10 mg/kg/day,155.01 ± 25.12 mg/dL
same,sTG (serum triglyceride),[2]; 10 mg/kg/day,103.38 ± 22.62 mg/dL
same,sVLDL (serum very-low-density lipoprotein),[2]; 10 mg/kg/day,20.68 ± 4.52 mg/dL
same,sALT (serum alanine transaminase),[2]; 50 mg/kg/day,36.3 ± 15.97 IU/L
same,sFFA (serum free fatty acid),[2]; 50 mg/kg/day,0.813 ± 0.243 mEq/L
same,sTC (serum total cholesterol),[2]; 50 mg/kg/day,140.70 ± 22.66 mg/dL
same,sTG (serum triglyceride),[2]; 50 mg/kg/day,95.19 ± 24.70 mg/dL
same,sVLDL (serum very-low-density lipoprotein),[2]; 50 mg/kg/day,19.04 ± 4.94 mg/dL
same,Epididymal white adipose tissue,[3]; 10 mg/kg/day into the stomach,1.452 ± 0.433 g
same,Final body weight,[3]; 10 mg/kg/day into the stomach,30.22 ± 2.07 g
same,Liver weight,[3]; 10 mg/kg/day into the stomach,0.996 ± 0.094 g
same,Mesenteric white adipose tissue,[3]; 10 mg/kg/day into the stomach,0.298 ± 0.088 g
same,Perirenal white adipose tissue,[3]; 10 mg/kg/day into the stomach,0.526 ± 0.069 g
same,Spleen weight,[3]; 10 mg/kg/day into the stomach,59.9 ± 8.2 mg
same,Epididymal white adipose tissue,[3]; 50 mg/kg/day into the stomach,1.182 ± 0.265 g
same,Final body weight,[3]; 50 mg/kg/day into the stomach,28.98 ± 1.76 g
same,Liver weight,[3]; 50 mg/kg/day into the stomach,0.982 ± 0.085 g
same,Mesenteric white adipose tissue,[3]; 50 mg/kg/day into the stomach,0.251 ± 0.056 g
same,Perirenal white adipose tissue,[3]; 50 mg/kg/day into the stomach,0.481 ± 0.080 g
same,Spleen weight,[3]; 50 mg/kg/day into the stomach,53.8 ± 6.4 mg
same,Initial body weight,[3]; baseline of the 10 mg/kg/day group,22.82 ± 1.01 g
same,Initial body weight,[3]; baseline of the 50 mg/kg/day group,22.84 ± 1.25 g
